The values below come from patent US20250332185A1, “Use of a New Therapeutic Combination to Treat Chronic Venous Insufficiency” (KÉRI PHARMA HUNGARY KFT., priority 2021, published 2025).

For experiment [1], the system named is homocysteine levels in untreated hypertensive patients. The conditions noted are these: cited from earlier work; for homocysteine levels increased by: end of 4.5-year treatment.
The test system of experiment [2] is systolic blood pressure in untreated hypertensive patients. The conditions noted are these: interval in brackets, cited from earlier work.
Experiment [3] concerns fasting homocysteine levels in healthy young women. The conditions noted are these: healthy young women with normal homocysteine; folic acid 400 micrograms/day, vitamin B6 2 mg/day; daily for four weeks; cited from earlier work.
Experiment [4] deals with patients with venous circulatory disorders, CEAP stage 2 and CEAP stage 3. As to the kind of experiment: Observation test 1: CIVIQ-20 quality-of-life score after 12 weeks of therapy. Type of experiment: in vivo, human. The conditions noted are these: for CIVIQ change (score): Visit 1 score - Visit 2 score (negative = improvement), 12 weeks; for CIVIQ (score), Visit 2: after 12 weeks of therapy; for CIVIQ (score), Visit 2 / CIVIQ (score), Visit 1: mean ± SD; for CIVIQ (score), Visit 1: baseline before treatment. How it is done:
The study analysed data from a total of 90 people retrospectively.
The analysis was based on consecutive patient data from outpatients who met the inclusion criteria. All patients had venous circulatory disorders, with severity of disease corresponding to CEAP stage 2 and CEAP stage 3. The male:female ratio in the population analysed was 1:2
In total, data from four different patient groups were examined: • Group 1: patients taking 1000 mg of diosmin daily (n=45)· • 30 subjects had homocysteine levels below the risk threshold (<12.5 μmol/L normal homocysteinemia group)· • 15 subjects had homocysteine levels above the risk threshold (>12.5 μmol/L hyperhomocysteinemia group) • Group 2: patients taking a daily combination of 1000 mg diosmin+6 mg folic acid+20 mg vitamin B6 (diosmin plus) (45 patients)· • 30 subjects had homocysteine levels below the risk threshold (<12.5 μmol/L normal homocysteinemia group)· • 15 subjects had homocysteine levels above the risk threshold (>12.5 μmol/L hyperhomocysteinemia group)
The observation period was 12 weeks, during which time patients took the prescribed medication continuously. Before starting the medication treatment, a physical examination (to determine the CEAP stage of chronic venous insufficiency) and homocysteine level determination were performed and a CIVIQ-20 questionnaire was filled out. At the end of the 12-week follow-up period, the tests were repeated. For continuous variables, normality testing was performed. Variables with a normal distribution (age, CIVIQ score at visits 1 and 2) were characterised by the mean+SD, while variables with a non-normal distribution (homocysteine level at visits 1 and 2) were characterised by the median (25; 75 percentile). Differences in the values of variables with normal distribution by subgroup was tested by t test, and difference in the values of variables with non-normal distribution by subgroup was tested by chi-squared test.
(§1) The factors determining the increase in CIVIQ score were analysed using simple and complex linear regression. In the composite model, age and gender were included as significant regressors. […] The fit of the final composite linear model was characterised using the Ramsey RESET test and the Breusch-Pagan/Cook-Weisberg test. Model fit is indicated by a value of p>0.05. The composite model was also stratified according to baseline homocysteine level (normal vs. low), to investigate the interaction between baseline homocysteine level and the therapy used.

Experiment [5] relates to homocysteine level. The experiment is described as follows: Observation test 1: homocysteine level determination. Type of experiment: in vivo, human. The conditions noted are these: median (25; 75 percentile); for homocysteine, Visit 2: after 12 weeks of therapy; for homocysteine, Visit 1: baseline before treatment, CEAP 2-3. How it is done: The analysis was based on consecutive patient data from outpatients who met the inclusion criteria. All patients had venous circulatory disorders, with severity of disease corresponding to CEAP stage 2 and CEAP stage 3. The male:female ratio in the population analysed was 1:2 In total, data from four different patient groups were examined: • Group 1: patients taking 1000 mg of diosmin daily (n=45)· • 30 subjects had homocysteine levels below the risk threshold (<12.5 μmol/L normal homocysteinemia group)· • 15 subjects had homocysteine levels above the risk threshold (>12.5 μmol/L hyperhomocysteinemia group) • Group 2: patients taking a daily combination of 1000 mg diosmin+6 mg folic acid+20 mg vitamin B6 (diosmin plus) (45 patients)· • 30 subjects had homocysteine levels below the risk threshold (<12.5 μmol/L normal homocysteinemia group)· • 15 subjects had homocysteine levels above the risk threshold (>12.5 μmol/L hyperhomocysteinemia group) The observation period was 12 weeks, during which time patients took the prescribed medication continuously. Before starting the medication treatment, a physical examination (to determine the CEAP stage of chronic venous insufficiency) and homocysteine level determination were performed and a CIVIQ-20 questionnaire was filled out. At the end of the 12-week follow-up period, the tests were repeated. For continuous variables, normality testing was performed. Variables with a normal distribution (age, CIVIQ score at visits 1 and 2) were characterised by the mean+SD, while variables with a non-normal distribution (homocysteine level at visits 1 and 2) were characterised by the median (25; 75 percentile). Differences in the values of variables with normal distribution by subgroup was tested by t test, and difference in the values of variables with non-normal distribution by subgroup was tested by chi-squared test.

Experiment [6] has as its system patients with venous circulatory disorders, CEAP stage 6 (leg ulcer). The experiment is described as follows: Observation test 2: area of leg ulcer after 12 weeks of therapy. It is filed as in vivo, human. The conditions noted are these: median (25; 75 percentile); for change in ulcer size: 1st visit - 2nd visit (positive = reduction), 12 weeks; for ulcer size, Visit 2: after 12 weeks of therapy; for ulcer size, Visit 1: baseline before treatment. How it is done:
Data from a total of 60 people were analysed retrospectively. Patients attending outpatient care consecutively who met the inclusion criteria were included in the retrospective analysis. Patients all had venous circulatory disorders with a severity of disease corresponding to CEAP stage 6. The male:female ratio in the analysed population was 1:2. The data of a total of four different patient groups were analysed as follows. • Group 1: patients taking 1000 mg of diosmin daily (n=30) • 15 patients had homocysteine levels below the risk threshold (<12.5 μmol/L, normal homocysteinemia group). • 15 patients had homocysteine levels above the risk threshold (>12.5 μmol/L hyperhomocysteinemia group) • Group 2: patients taking a daily combination of 1000 mg diosmin+3 mg folic acid+20 mg vitamin B6 (diosmin plus) (30 patients) • 15 patients had homocysteine levels below the risk threshold (<12.5 μmol/L normal homocysteinemia group). • 15 patients had homocysteine levels above the risk threshold (>12.5 μmol/L hyperhomocysteinemia group) • Group 3: patients taking a combination of 3 mg folic acid+20 mg vitamin B6 (diosmin plus) daily (30 patients) • 15 patients had homocysteine levels below the risk threshold (<12.5 μmol/L normal homocysteinemia group). • 15 patients had homocysteine levels above the risk threshold (>12.5 μmol/L hyperhomocysteinemia group)
The observation period was 12 weeks, during which time patients took the prescribed medication continuously. Before starting the medication treatment, a physical examination (to determine the CEAP stage of chronic venous insufficiency) and homocysteine level determination were performed. The area of the leg ulcer developed based on the venous circulatory disorder was also determined.
At the end of the 12-week observation period, the tests were repeated. For continuous variables, normality tests were performed. Variables with a normal distribution (age) were characterised by the mean+SD, variables with a non-normal distribution (homocysteine level at visits 1 and 2, leg ulcer area at visits 1 and 2) were characterised by the median (25; 75 percentile). For comparisons between two subgroups, the difference in the values of variables with normal distribution by subgroup was tested by t test, and the difference in the values of variables with non-normal distribution by subgroup was tested by chi-squared test.
as §1, with “effectiveness of the therapy was characterised by the change in the area of the leg ulcer. Factors” for “factors”, “change” for “increase”, “ulcer size” for “CIVIQ score”, “were” for “were included as”

Experiment [7] relates to homocysteine level. As to the kind of experiment: Observation test 2: homocysteine level determination. Type of experiment: in vivo, human. The conditions noted are these: median (25; 75 percentile); for homocysteine, Visit 2: after 12 weeks of therapy; for homocysteine, Visit 1: baseline before treatment, CEAP 6. The method, then: Data from a total of 60 people were analysed retrospectively. Patients attending outpatient care consecutively who met the inclusion criteria were included in the retrospective analysis. Patients all had venous circulatory disorders with a severity of disease corresponding to CEAP stage 6. The male:female ratio in the analysed population was 1:2. The data of a total of four different patient groups were analysed as follows. • Group 1: patients taking 1000 mg of diosmin daily (n=30) • 15 patients had homocysteine levels below the risk threshold (<12.5 μmol/L, normal homocysteinemia group). • 15 patients had homocysteine levels above the risk threshold (>12.5 μmol/L hyperhomocysteinemia group) • Group 2: patients taking a daily combination of 1000 mg diosmin+3 mg folic acid+20 mg vitamin B6 (diosmin plus) (30 patients) • 15 patients had homocysteine levels below the risk threshold (<12.5 μmol/L normal homocysteinemia group). • 15 patients had homocysteine levels above the risk threshold (>12.5 μmol/L hyperhomocysteinemia group) • Group 3: patients taking a combination of 3 mg folic acid+20 mg vitamin B6 (diosmin plus) daily (30 patients) • 15 patients had homocysteine levels below the risk threshold (<12.5 μmol/L normal homocysteinemia group). • 15 patients had homocysteine levels above the risk threshold (>12.5 μmol/L hyperhomocysteinemia group) The observation period was 12 weeks, during which time patients took the prescribed medication continuously. Before starting the medication treatment, a physical examination (to determine the CEAP stage of chronic venous insufficiency) and homocysteine level determination were performed. The area of the leg ulcer developed based on the venous circulatory disorder was also determined. At the end of the 12-week observation period, the tests were repeated. For continuous variables, normality tests were performed. Variables with a normal distribution (age) were characterised by the mean+SD, variables with a non-normal distribution (homocysteine level at visits 1 and 2, leg ulcer area at visits 1 and 2) were characterised by the median (25; 75 percentile). For comparisons between two subgroups, the difference in the values of variables with normal distribution by subgroup was tested by t test, and the difference in the values of variables with non-normal distribution by subgroup was tested by chi-squared test.

For experiment [8], the system named is patients with venous ulcers. The conditions noted are these: cited from earlier work.
Setting [9] is: hyperhomocysteine group (>12.5 μmol/L).
Setting [10] is: normal homocysteine group (<12.5 μmol/L).

Each structure is given as a SMILES string. Like-named read-outs stand apart in the source and are kept apart here.

As to `CCOC(=O)[C@H](CCc1ccccc1)N[C@@H](C)C(=O)N1CCC[C@H]1C(=O)O` [enalapril], the “homocysteine levels increased by” value was 1.7 µmol/L in experiment [1] (baseline homocysteine <10 μmol/L); 1.1 µmol/L in experiment [1] (baseline homocysteine between 10 and 15 μmol/L). Also, the “homocysteine levels decreased by” value in experiment [1] (baseline homocysteine ≥15 μmol/L, median 4.5 years, 10 mg enalapril, 0.8 mg folic acid daily) is 2.4 µmol/L. The “Reduction in systolic blood pressure” value in experiment [2] (baseline homocysteine 10-<15 versus reference category <10) was −0.77 (−1.53; −0.01) mm Hg; in experiment [2] (baseline homocysteine ≥15 versus reference category <10) it was −1.70 (−2.68; −0.72) mm Hg.

For the molecule `Cc1ncc(CO)c(CO)c1O.Cl` [Vitamin B6, vitamin B6], the “reduction of homocysteine levels” value in experiment [3] is “no effect”.

For the molecule `COc1ccc(-c2cc(=O)c3c(O)cc(O[C@@H]4O[C@H](CO[C@@H]5O[C@@H](C)[C@H](O)[C@@H](O)[C@H]5O)[C@@H](O)[C@H](O)[C@H]4O)cc3o2)cc1O` [diosmin], the “CIVIQ change (score)” value in experiment [4] (hyperhomocysteine group) is given as −14.56 ± 15.86 score; in experiment [4] (normal homocysteine group), −12.09 ± 1.23 score. For the same molecule, the “CIVIQ (score), Visit 2” value in experiment [4] (hyperhomocysteine group) turned out to be 79.71 ± 10.81 score; in experiment [4] (normal homocysteine group), 78.44 ± 8.75 score. Further, the “CIVIQ (score), Visit 1” value is listed as 65.14 ± 8.45 score in experiment [4] (hyperhomocysteine group) and 66.09 ± 9.91 score in experiment [4] (normal homocysteine group). Moreover, the “homocysteine, Visit 2” value in the experiment with homocysteine level [5] (hyperhomocysteine group) is recorded as 11.69 (11.52; 11.91) μmol/L; with homocysteine level [5] (normal homocysteine group), 7.39 (7.65; 7.80) μmol/L; in the experiment on homocysteine level [7] (hyperhomocysteine group), 19.13 (18.75; 19.42) μmol/L; in the experiment on homocysteine level [7] (normal homocysteine group) it was 10.89 (10.21; 11.17) μmol/L. For the same molecule, the “homocysteine, Visit 1” value in the experiment with homocysteine level [5] (setting [9]) is given as 14.74 (13.24; 15.79) μmol/L; with homocysteine level [5] (setting [10]), 8.00 (7.23; 8.83) μmol/L; in the experiment on homocysteine level [7] (setting [9]), 20.73 (20.16; 21.21) μmol/L; in the experiment with homocysteine level [7] (setting [10]) it was 11.82 (11.59; 12.24) μmol/L. In addition, the “change in ulcer size” value in experiment [6] (hyperhomocysteine group) is 2.61 (2.01; 3.29) cm^2; in experiment [6] (normal homocysteine group), 1.11 (0.64; 2.26) cm^2. For the same molecule, the “ulcer size, Visit 2” value in experiment [6] (hyperhomocysteine group) was 10.56 (10.28; 10.91) cm^2; in experiment [6] (normal homocysteine group), 7.09 (6.12; 7.67) cm^2. Besides, the “ulcer size, Visit 1” value is 13.62 (12.44; 13.85) cm^2 in experiment [6] (hyperhomocysteine group) and 8.11 (7.07; 8.73) cm^2 in experiment [6] (normal homocysteine group).

As to `Nc1nc2ncc(CNc3ccc(C(=O)N[C@@H](CCC(=O)O)C(=O)O)cc3)nc2c(=O)[nH]1` [folic acid], the “ulcer healing” value in experiment [8] (chronic venous ulcer disease with hyperhomocysteinemia) is listed as “accelerated ulcer healing”. The cure rate in experiment [8] (group A: hyperhomocysteinemia, folic acid 1.2 mg/day for 12 months plus basic treatment, group B basic treatment only 63·33%, P<0.05) is given as 78.75%. Moreover, the “reduction of homocysteine levels” value in experiment [3] is on record as 11.5%.
